# Data taken from ChEMBL document CHEMBL1130926, “Novel H3 receptor antagonists. Sulfonamide homologs of histamine” (Bioorg Med Chem Lett, 1998).
# Activity calls are given as the source filed them. No cut-off for these calls is given here.
# Key:
# Histamine H3 receptor [1] = target: T1, Histamine H3 receptor (Cavia porcellus, UniProt Q9JI35); test: Inhibition of [3H]Nalpha-methylhistamine binding to H3 receptor in guinea-pig brain membranes; type: cell membranes, Membrane
# Histamine H3 receptor [2] = target: T1, Histamine H3 receptor; test: H3 -antagonist potency determined in electrically stimulated guinea-pig ileum; type: functional, tissue-based; settings: read-out: pA2 (converted)
# Histamine H1 receptor = Histamine H1 receptor (Cavia porcellus, UniProt P31389); test: Evaluated for the percent binding affinity against H1 receptor by an H1 histamine-mediated bronchospasm; parameters: concentration or dose not given beside the values
# Chain of Histamine H1 receptor (P31389 whole entry): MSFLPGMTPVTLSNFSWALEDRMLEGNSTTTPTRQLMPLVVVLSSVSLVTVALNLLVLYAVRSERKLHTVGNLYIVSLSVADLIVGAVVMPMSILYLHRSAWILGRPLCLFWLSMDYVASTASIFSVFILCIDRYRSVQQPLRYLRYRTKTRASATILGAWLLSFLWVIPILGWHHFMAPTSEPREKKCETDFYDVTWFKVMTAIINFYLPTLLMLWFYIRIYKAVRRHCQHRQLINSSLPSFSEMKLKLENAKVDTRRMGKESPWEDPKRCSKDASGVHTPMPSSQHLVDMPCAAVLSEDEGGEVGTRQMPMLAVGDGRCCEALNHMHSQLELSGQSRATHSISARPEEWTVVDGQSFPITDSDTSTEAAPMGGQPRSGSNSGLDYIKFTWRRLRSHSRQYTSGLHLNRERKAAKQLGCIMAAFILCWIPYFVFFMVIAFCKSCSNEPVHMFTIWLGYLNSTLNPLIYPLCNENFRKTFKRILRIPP
# [3] = target: Histamine H3 receptor (Cavia porcellus) (UniProt Q9JI35); test: Evaluated in vivo for its H3 receptor antagonist activity in the CNS hypertension model at 3 mg/kg dose; type: functional, organism-based; parameters: dose 3 mg/kg
# Chain of Histamine H3 receptor (Cavia porcellus) (Q9JI35 whole entry): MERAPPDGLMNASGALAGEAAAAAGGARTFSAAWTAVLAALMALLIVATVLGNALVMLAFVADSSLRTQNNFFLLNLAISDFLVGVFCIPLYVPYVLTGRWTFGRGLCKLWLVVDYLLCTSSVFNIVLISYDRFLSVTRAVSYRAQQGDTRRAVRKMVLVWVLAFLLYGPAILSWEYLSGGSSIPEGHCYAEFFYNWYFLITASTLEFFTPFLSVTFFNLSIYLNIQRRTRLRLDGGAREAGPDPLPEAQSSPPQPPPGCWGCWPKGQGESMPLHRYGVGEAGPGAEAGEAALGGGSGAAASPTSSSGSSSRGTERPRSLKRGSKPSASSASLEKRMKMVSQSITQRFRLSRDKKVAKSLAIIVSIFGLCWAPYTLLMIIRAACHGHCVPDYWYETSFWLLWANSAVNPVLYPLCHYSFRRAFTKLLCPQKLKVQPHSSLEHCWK
# [4] = target: Histamine H3 receptor (Cavia porcellus) (UniProt Q9JI35); test: Evaluated in vivo for its H3 receptor antagonist activity in the CNS hypertension model; type: functional, organism-based
# Cavia porcellus = test: Compound was evaluated in vivo for its H3 receptor antagonist activity in the CNS hypertension model; NA: Not active; type: functional, organism-based
# T1 sequence (Q9JI35 whole entry): as above
SMILES,Ki (Histamine H3 receptor [1]),Kb (Histamine H3 receptor [2]),inhibition (Histamine H1 receptor),inhibition [3],ED50 [4],ED50 (Cavia porcellus)
O=[N+]([O-])c1ccccc1CS(=O)(=O)NCCCCc1cnc[nH]1,42 nM,–,–,–,–,–
CN(CCCCc1c[nH]cn1)S(=O)(=O)c1ccc(Cl)cc1,4 nM,5.01 nM,32%,43%,–,–
O=S(=O)(NCCCCCc1c[nH]cn1)c1ccccc1,24.5 nM,63.1 nM,19%,–,–,–
O=S(=O)(c1ccc(Cl)cc1)N(CCCCc1c[nH]cn1)Cc1ccc(Cl)cc1,24 nM,15.8 nM,45%,–,3 mg/kg,–
O=S(=O)(NCCCCc1c[nH]cn1)c1ccc(C(F)(F)F)cc1,10 nM,3.98 nM,1%,–,3 mg/kg,–
O=[N+]([O-])c1ccc(S(=O)(=O)NCCCCc2cnc[nH]2)cc1,16.5 nM,20 nM,–,–,–,–
O=S(=O)(NCCCCc1c[nH]cn1)c1ccccc1,–,–,5%,–,–,inactive
CC(C)(C)c1ccc(S(=O)(=O)NCCCCc2c[nH]cn2)cc1,16.5 nM,15.8 nM,32%,–,3 mg/kg,–
O=S(=O)(NCCCCCc1c[nH]cn1)c1ccc(OC(F)(F)F)cc1,24.3 nM,10 nM,1%,–,–,–
O=S(=O)(Cc1ccccc1)NCCCCc1c[nH]cn1,6 nM,31.6 nM,3%,17%,–,–
Cc1ccc(S(=O)(=O)NCCCCc2cnc[nH]2)cc1,17 nM,25.1 nM,–,–,–,–
CC(C)(C)c1ccc(S(=O)(=O)NCCCc2c[nH]cn2)cc1,45.5 nM,–,30%,–,–,–
O=S(=O)(NCCCCc1c[nH]cn1)c1ccc(Cl)cc1,–,–,48%,–,2.2 mg/kg,–
Nc1ccc(S(=O)(=O)NCCCCc2c[nH]cn2)cc1,99 nM,–,–,–,–,–
O=[N+]([O-])c1ccc(S(=O)(=O)NCCCCc2c[nH]cn2)cc1,–,–,24%,–,–,inactive
O=S(=O)(NCCCCc1c[nH]cn1)c1ccc(F)cc1,20.5 nM,158 nM,19%,–,–,–
CC(C)S(=O)(=O)NCCCCc1cnc[nH]1,22 nM,63.1 nM,–,–,–,–

SMILES,Ki (Histamine H3 receptor [1]),Kb (Histamine H3 receptor [2]),inhibition (Histamine H1 receptor),inhibition [3],ED50 [4],ED50 (Cavia porcellus)
O=S(=O)(c1ccc(Cl)cc1)N(CCCCc1c[nH]cn1)CCCCn1ccnc1,2.5 nM,7.94 nM,–,–,–,–
O=[N+]([O-])c1ccc(S(=O)(=O)NCCCc2c[nH]cn2)cc1,93 nM,–,36%,–,–,–
O=[N+]([O-])c1ccc(S(=O)(=O)NCCCCCc2c[nH]cn2)cc1,5.5 nM,7.94 nM,25%,–,2.7 mg/kg,–
O=S(=O)(NCCCCc1c[nH]cn1)c1ccc(OC(F)(F)F)cc1,7 nM,10 nM,–,–,–,inactive
O=S(=O)(NCCCCc1cnc[nH]1)c1cccs1,45 nM,–,–,–,–,–
O=S(=O)(NCCCCCc1cnc[nH]1)c1ccc(Cl)cc1,11.5 nM,100 nM,–,–,–,–
Cn1cc[n+](S(=O)(=O)NCCCCc2c[nH]cn2)c1,43 nM,–,–,–,–,–
CC(C)(C)c1ccc(S(=O)(=O)NCCCCCc2c[nH]cn2)cc1,5 nM,10 nM,14%,40%,–,–
Cc1ccc(S(=O)(=O)NCCCCc2c[nH]cn2)cc1,–,–,–,16%,–,–
O=S(=O)(NCCCc1c[nH]cn1)c1ccc(Cl)cc1,380 nM,–,21%,–,–,–
COc1ccc(S(=O)(=O)NCCCCc2cnc[nH]2)cc1,51 nM,–,–,–,–,–
O=S(=O)(NCCCCc1c[nH]cn1)c1cccc(Cl)c1,8.5 nM,50.1 nM,–,8%,–,–
O=S(=O)(NCCCc1cnc[nH]1)c1cccs1,550 nM,–,–,–,–,–
O=S(=O)(NCCCCc1cnc[nH]1)c1ccccc1,10.5 nM,31.6 nM,–,–,–,–
O=S(=O)(NCCCCCc1c[nH]cn1)c1ccc(Cl)cc1,–,–,37%,–,3 mg/kg,–
O=S(=O)(NCCCCc1cnc[nH]1)c1ccc(Cl)cc1,9 nM,12.6 nM,–,–,–,–
